Source: patent US20260216176A1, “USE OF PCLX-001 OR PCLX-002 AS A RADIOSENSITIZER” (ACYLEX PHARMACEUTICALS INC., priority 2023, published 2026)
Values joined by “and” are separate entries in the source; they are usually repeats but may differ in a detail not shown here. Equal values may be shown once. Read-outs that look alike come from different tables or passages of the source.

Experiment: Plasma, brain and CSF pharmacokinetics and brain tissue accumulation in mice (LC-MS/MS)
Type: in vivo, male C57BL/6 mice
Conditions: for Cmax: read-out: C0/Cmax; for half-life: read-out: T½ (converted)
[1] = male, C57BL/6, mouse, oral gavage 5 mg/kg, Brain
[2] = male, C57BL/6, mouse, oral gavage 5 mg/kg, CSF
[3] = male, C57BL/6, mouse, oral gavage 5 mg/kg, Plasma

## Cc1c(N[S+](=O)(O)c2c(Cl)cc(-c3ccnc(N4CCNCC4)c3)cc2Cl)c(CC(C)C)nn1C [PCLX-001]
5 mg/kg oral, time point 0.00 h, individual animals
  Plasma Conc.: 0.00 nM
5 mg/kg oral, time point 0.00 h, individual animals, read-out: Brain Conc.
  concentration at 8 h: 0.00 nM
5 mg/kg oral, time point 0.00 h, individual animals, read-out: CSF Conc.
  concentration at 24 h: 0.00 nM
5 mg/kg oral, time point 0.25 h, individual animals
  Plasma Conc.: 6762.56 nM and 8570.40 nM
5 mg/kg oral, time point 0.25 h, individual animals, read-out: Brain Conc.
  concentration at 8 h: 73.74 nM and 86.13 nM
5 mg/kg oral, time point 0.25 h, individual animals, read-out: CSF Conc.
  concentration at 24 h: 11.50 nM and 3.78 nM and 7.47 nM
5 mg/kg oral, time point 0.50 h, individual animals
  Plasma Conc.: 8294.21 nM and 6591.89 nM
5 mg/kg oral, time point 0.50 h, individual animals, read-out: Brain Conc.
  concentration at 8 h: 122.31 nM and 138.42 nM
5 mg/kg oral, time point 0.50 h, individual animals, read-out: CSF Conc.
  concentration at 24 h: 4.19 nM and 2.89 nM
5 mg/kg oral, time point 1.00 h, individual animals
  Plasma Conc.: 9051.65 nM and 8883.32 nM
5 mg/kg oral, time point 1.00 h, individual animals, read-out: Brain Conc.
  concentration at 8 h: 54.48 nM and 64.47 nM
5 mg/kg oral, time point 1.00 h, individual animals, read-out: CSF Conc.
  concentration at 24 h: 2.72 nM and 8.67 nM and 3.50 nM
5 mg/kg oral, time point 2.00 h, individual animals
  Plasma Conc.: 5724.05 nM and 5659.43 nM
5 mg/kg oral, time point 2.00 h, individual animals, read-out: Brain Conc.
  concentration at 8 h: 185.79 nM and 81.69 nM and 204.51 nM
5 mg/kg oral, time point 2.00 h, individual animals, read-out: CSF Conc.
  concentration at 24 h: 7.26 nM and 15.58 nM and 16.86 nM
5 mg/kg oral, time point 4.00 h, individual animals
  Plasma Conc.: 13975.97 nM and 6234.47 nM and 11667.07 nM
5 mg/kg oral, time point 4.00 h, individual animals, read-out: Brain Conc.
  concentration at 8 h: 243.03 nM and 114.75 nM and 171.09 nM
5 mg/kg oral, time point 4.00 h, individual animals, read-out: CSF Conc.
  concentration at 24 h: 15.26 nM and 6.67 nM and 87.98 nM
5 mg/kg oral, time point 8.00 h, individual animals
  Plasma Conc.: 2821.68 nM and 6573.92 nM and 6832.35 nM
5 mg/kg oral, time point 8.00 h, individual animals, read-out: Brain Conc.
  concentration at 8 h: 135.06 nM and 148.56 nM
5 mg/kg oral, time point 8.00 h, individual animals, read-out: CSF Conc.
  concentration at 24 h: 30.28 nM and 5.97 nM and 7.19 nM
5 mg/kg oral, time point 24.00 h, individual animals
  Plasma Conc.: 6.38 nM and 4.10 nM
5 mg/kg oral, time point 24.00 h, individual animals, read-out: Brain Conc.
  concentration at 8 h: 0.00 nM and 8.13 nM and 12.81 nM
5 mg/kg oral, time point 24.00 h, individual animals, read-out: CSF Conc.
  concentration at 24 h: 0.00 nM
After oral administration
  time of peak brain drug concentrations: approximately 4 h
male, C57BL/6, mouse, CSF, oral, 5 mg/kg, 5 mg/kg oral, time point 0.50 h, individual animals, read-out: CSF Conc.
  concentration at 0.5 h: 3.44 nM
male, C57BL/6, mouse, CSF, oral, 5 mg/kg, 5 mg/kg oral, time point 24.00 h, individual animals, read-out: CSF Conc.
  concentration at 24 h: 0 nM
male, C57BL/6, mouse, brain and CSF, 5 mg/kg oral, time point 0.25 h, read-out: Brain/CSF-Kp
  Kp at 0.25 h: 13
male, C57BL/6, mouse, brain, oral, 5 mg/kg, 5 mg/kg oral, time point 0.25 h, individual animals, read-out: Brain Conc.
  concentration at 0.25 h: 135 nM
male, C57BL/6, mouse, brain, oral, 5 mg/kg, 5 mg/kg oral, time point 0.25 h, read-out: Mean Brain Conc.
  concentration at 0.25 h: 98.3 nM
male, C57BL/6, mouse, brain, oral, 5 mg/kg, 5 mg/kg oral, time point 0.50 h, individual animals, read-out: Brain Conc.
  concentration at 0.5 h: 108 nM
male, C57BL/6, mouse, brain, oral, 5 mg/kg, 5 mg/kg oral, time point 0.50 h, read-out: Mean Brain Conc.
  concentration at 0.5 h: 123 nM
male, C57BL/6, mouse, brain, oral, 5 mg/kg, 5 mg/kg oral, time point 1.00 h, individual animals, read-out: Brain Conc.
  concentration at 1 h: 75.5 nM
male, C57BL/6, mouse, brain, oral, 5 mg/kg, 5 mg/kg oral, time point 1.00 h, read-out: Mean Brain Conc.
  concentration at 1 h: 64.8 nM
male, C57BL/6, mouse, brain, oral, 5 mg/kg, 5 mg/kg oral, time point 2.00 h, read-out: Mean Brain Conc.
  concentration at 2 h: 157 nM
male, C57BL/6, mouse, brain, oral, 5 mg/kg, 5 mg/kg oral, time point 4.00 h, read-out: Mean Brain Conc.
  concentration at 4 h: 176 nM
male, C57BL/6, mouse, brain, oral, 5 mg/kg, 5 mg/kg oral, time point 8.00 h, individual animals, read-out: Brain Conc.
  concentration at 8 h: 79.3 nM
male, C57BL/6, mouse, brain, oral, 5 mg/kg, 5 mg/kg oral, time point 8.00 h, read-out: Mean Brain Conc.
  concentration at 8 h: 121 nM
male, C57BL/6, mouse, brain, oral, 5 mg/kg, 5 mg/kg oral, time point 24.00 h, read-out: Mean Brain Conc.
  concentration at 24 h: 6.98 nM
male, C57BL/6, mouse, brain/CSF, 5 mg/kg oral, time point 0.50 h, read-out: Brain/CSF-Kp
  Kp at 0.5 h: 35
male, C57BL/6, mouse, brain/CSF, 5 mg/kg oral, time point 1.00 h, read-out: Brain/CSF-Kp
  Kp at 1 h: 13.1
male, C57BL/6, mouse, brain/CSF, 5 mg/kg oral, time point 2.00 h, read-out: Brain/CSF-Kp
  Kp at 2 h: 11.9
male, C57BL/6, mouse, brain/CSF, 5 mg/kg oral, time point 4.00 h, read-out: Brain/CSF-Kp
  Kp at 4 h: 4.81
male, C57BL/6, mouse, brain/CSF, 5 mg/kg oral, time point 8.00 h, read-out: Brain/CSF-Kp
  Kp at 8 h: 8.35
male, C57BL/6, mouse, brain/plasma, 5 mg/kg oral, time point 0.25 h, read-out: B/P-Kp (brain to plasma ratio)
  Kp at 0.25 h: 0.01
male, C57BL/6, mouse, brain/plasma, 5 mg/kg oral, time point 0.50 h, read-out: B/P-Kp (brain to plasma ratio)
  Kp at 0.5 h: 0.02
male, C57BL/6, mouse, brain/plasma, 5 mg/kg oral, time point 1.00 h, read-out: B/P-Kp (brain to plasma ratio)
  Kp at 1 h: 0.01
male, C57BL/6, mouse, brain/plasma, 5 mg/kg oral, time point 2.00 h, read-out: B/P-Kp (brain to plasma ratio)
  Kp at 2 h: 0.02
male, C57BL/6, mouse, brain/plasma, 5 mg/kg oral, time point 4.00 h, read-out: B/P-Kp (brain to plasma ratio)
  Kp at 4 h: 0.02
male, C57BL/6, mouse, brain/plasma, 5 mg/kg oral, time point 8.00 h, read-out: B/P-Kp (brain to plasma ratio)
  Kp at 8 h: 0.02
male, C57BL/6, mouse, brain/plasma, 5 mg/kg oral, time point 24.00 h, read-out: B/P-Kp (brain to plasma ratio)
  Kp at 24 h: 1.24
male, C57BL/6, mouse, plasma, oral, 5 mg/kg, 5 mg/kg oral, time point 0.25 h, individual animals, read-out: Plasma Conc.
  concentration at 0.25 h: 9590 nM
male, C57BL/6, mouse, plasma, oral, 5 mg/kg, 5 mg/kg oral, time point 0.25 h, read-out: Mean Plasma Conc.
  concentration at 0.25 h: 8310 nM
male, C57BL/6, mouse, plasma, oral, 5 mg/kg, 5 mg/kg oral, time point 0.50 h, individual animals, read-out: Plasma Conc.
  concentration at 0.5 h: 4650 nM
male, C57BL/6, mouse, plasma, oral, 5 mg/kg, 5 mg/kg oral, time point 0.50 h, read-out: Mean Plasma Conc.
  concentration at 0.5 h: 6510 nM
male, C57BL/6, mouse, plasma, oral, 5 mg/kg, 5 mg/kg oral, time point 1.00 h, individual animals, read-out: Plasma Conc.
  concentration at 1 h: 7240 nM
male, C57BL/6, mouse, plasma, oral, 5 mg/kg, 5 mg/kg oral, time point 1.00 h, read-out: Mean Plasma Conc.
  concentration at 1 h: 8390 nM
male, C57BL/6, mouse, plasma, oral, 5 mg/kg, 5 mg/kg oral, time point 2.00 h, individual animals, read-out: Plasma Conc.
  concentration at 2 h: 9730 nM
male, C57BL/6, mouse, plasma, oral, 5 mg/kg, 5 mg/kg oral, time point 2.00 h, read-out: Mean Plasma Conc.
  concentration at 2 h: 7040 nM
male, C57BL/6, mouse, plasma, oral, 5 mg/kg, 5 mg/kg oral, time point 4.00 h, read-out: Mean Plasma Conc.
  concentration at 4 h: 10600 nM
male, C57BL/6, mouse, plasma, oral, 5 mg/kg, 5 mg/kg oral, time point 8.00 h, read-out: Mean Plasma Conc.
  concentration at 8 h: 5410 nM
male, C57BL/6, mouse, plasma, oral, 5 mg/kg, 5 mg/kg oral, time point 24.00 h, individual animals, read-out: Plasma Conc.
  concentration at 24 h: 6.39 nM
male, C57BL/6, mouse, plasma, oral, 5 mg/kg, 5 mg/kg oral, time point 24.00 h, read-out: Mean Plasma Conc.
  concentration at 24 h: 5.63 nM
[1]
  AUC(0-t): 2.15 µM·h
  Tmax: 4 h
  Cmax: 176 nM
  half-life: 4.17 h
male, C57BL/6, mouse, oral gavage 5 mg/kg, Brain, read-out: T/P ratio (Tissue to plasma AUClast ratio)
  Kp: 0.02
[2]
  AUC(0-t): 0.166 µM·h
  Tmax: 4 h
  Cmax: 36.6 nM
[3]
  AUC(0-t): 108 µM·h
  Tmax: 4 h
  bioavailability: 97%
  Cmax: 10600 nM
  half-life: 1.77 h
